# Assay results as given in patent publication US20100204116A1, “USE OF CALCITONIN AS ANTI-ANGIOGENIC AGENT” (priority 2007, published 2010).
# Experiments:
# CEM-SS cells = experiment: Cytotoxicity (MTS cell viability) in the HIV-1 assay; settings: CEM-SS cells plus peptide only, 10 micrograms per ml
# HIV-1IIIB = experiment: HIV-1 antiviral assay (CPE reduction, MTS) in CEM-SS cells; settings: peptide 10 micrograms per ml, 6 days post-infection
# [1] = tested on: MRC-5 cells (human embryonal lung fibroblasts); experiment: Cytotoxicity (CellTiter 96 cell viability) in the HCMV assay; settings: MRC-5 cells; 6 days incubation; CellTiter 96
# spleen cells = experiment: Th1/Th2 cytokine profiling assay (Ovalbumin-restimulated spleen cells, CBA kit); format: cell-based, Balb/c mice; settings: peptide 10 micrograms per ml; Ovalbumin restimulation; 72 hours
# Human A549 cells [2] = experiment: Propidium iodide cell cycle assay; format: cell-based; settings: peptide 10 micrograms per ml, 24 hours
# RAW 264.7 cells = experiment: Phagocytosis assay (Fluorescein-labeled Escherichia coli, flow cytometry); format: cell-based, mouse; settings: peptide 10 micrograms per ml
# Procedure: RAW 264.7 (Mouse leukaemic monocyte macrophage cell line) cells were obtained from ATCC and grown in RPMI 1640 medium containing 10% FBS. […] After the cells were incubated for additional 60 min at 37° C. and allowed to ingest the Fluorescein-labeled Escherichia coli bacteria, cells were fixed with 1% paraformaldehyde. The samples were then analyzed by flow cytometry to determine the amount of phagocytosis as a function of brightness (the greater the phagocytic activity, the more fluorescence in the macrophage population). Data are reported as % positive and the mean fluorescence intensity (MFI) of positively stained cells.
# TNF alpha = TNF alpha production assay (LPS-stimulated macrophages, ELISA); format: cell-based, human; settings: peptide 10 micrograms per ml, lipopolysaccharide 200 ng/ml, overnight
# Text: Not stimulated macrophages served as negative background control.
# [3] = tested on: Primary Human endothelial cells (HUVEC); experiment: Endothelial cell migration assay; format: cell-based; settings: peptide 10 micrograms per ml, 22 hours
# Human A549 cells [4] = experiment: Apoptosis prevention assay (C2 ceramide, Annexin-5); format: cell-based; settings: A549 cells pretreated 30 min with peptide 10 micrograms per ml, then C2 ceramide
# [5] = tested on: hepatitis B virus (HBV) ayw strain; experiment: HBV experimental assay system (secreted HBV DNA, TaqMan PCR); settings: peptide 10 micrograms per ml; six days; HBV DNA in supernatant
# Human A549 cells [6] = experiment: Apoptosis induction assay (Annexin-5); format: cell-based; settings: peptide 10 micrograms per ml, 24 hours
# [7] = tested on: Human Peripheral Blood Mononuclear Cells (PBMC); experiment: B cell proliferation assay (SAC plus Interleukin-2, 3H-thymidine); format: cell-based; settings: peptide 10 micrograms per ml
# [8] = Cytotoxicity (CellTiter 96 cell viability) in the HCMV assay; settings: human, MRC-5 cells (human embryonal lung fibroblasts)
# [9] = tested on: Human Peripheral Blood Mononuclear Cells (PBMC); experiment: T cell proliferation assay (PHA, 3H-thymidine); format: cell-based; settings: peptide 10 micrograms per ml
# HUVEC = experiment: Endothelial tube formation assay; format: cell-based, human; settings: peptide 10 micrograms per ml, 20 hours
# Text: Positive control was vehicle only.
# HCMV strain AD169 = experiment: HCMV plaque reduction assay in MRC-5 cells; format: cell-based; settings: peptide 10 micrograms per ml, 7-10 days
# Text: Ganciclovir was used as positive control.
compound,measurement,setting,value
"Cc1cn([C@H]2C[C@H](N=[N+]=[N-])[C@@H](CO)O2)c(=O)[nH]c1=O [AZT, reference compound]",% Cell viability,CEM-SS cells,97%
same,% CPE reduction in HIV-1 infected CEM-SS cells,HIV-1IIIB,99%
"Nc1nc(O)c2ncn(COC(CO)CO)c2n1 [Ganciclovir, reference compound]",% Cell viability,[1],100%
CC[C@H](C)[C@H](NC(=O)[C@H](C)NC(=O)[C@@H](NC(=O)[C@H](CCC(N)=O)NC(=O)[C@@H]1CCCN1C(=O)[C@H](Cc1ccccc1)NC(=O)[C@@H](NC(=O)[C@H](Cc1c[nH]cn1)NC(=O)[C@H](Cc1ccccc1)NC(=O)[C@H](CCCCN)NC(=O)[C@H](CC(N)=O)NC(=O)[C@H](Cc1ccccc1)NC(=O)[C@H](CC(=O)O)NC(=O)[C@H](CCC(N)=O)NC(=O)[C@@H](NC(=O)[C@H](Cc1ccc(O)cc1)NC(=O)[C@@H](NC(=O)CNC(=O)[C@H](CC(C)C)NC(=O)[C@H](CCSC)NC(=O)[C@@H]1CSSC[C@H](N)C(=O)NCC(=O)N[C@@H](CC(N)=O)C(=O)N[C@@H](CC(C)C)C(=O)N[C@@H](CO)C(=O)N[C@@H]([C@@H](C)O)C(=O)N1)[C@@H](C)O)[C@@H](C)O)[C@@H](C)O)[C@@H](C)O)C(=O)NCC(=O)N[C@H](C(=O)NCC(=O)N[C@@H](C)C(=O)N1CCC[C@H]1C(N)=O)C(C)C [Calcitonin],IFNγ spleen cells; TH1 response (% of control),spleen cells,63.7 % of control
same,IL-2 spleen cells (% of control),spleen cells,110.1 % of control
same,IL-4 spleen cells; TH2 response (% of control),spleen cells,0.0 % of control
same,IL-5 spleen cells; TH2 response (% of control),spleen cells,60.2 % of control
same,TNF-a spleen cells; TH1 response (% of control),spleen cells,116.4 % of control
same,Cell cycle analysis G0/G1,Human A549 cells [2],57.0
same,Cell cycle analysis G2/M,Human A549 cells [2],10.4
same,Cell cycle analysis S,Human A549 cells [2],32.6
same,% of control phagocytosis,RAW 264.7 cells,102.9%
same,% of LPS induction,TNF alpha,93.4%
same,% inhibition of migration,[3],26%
same,% prevention of ceramide induced apoptosis,Human A549 cells [4],32.7%
same,% inhibition of HBV replication in HEP G2 cells,[5],31.0%
same,% CPE reduction in HIV-1 infected CEM-SS cells,HIV-1IIIB,0.0%
same,% of induction,Human A549 cells [6],2.9%
same,% of SAC/IL2 induced control,[7],92.6%
same,viability at 144 h,[8],100%
same,% of PHA induced Control,[9],87.4%
same,% inhibition of tube formation,HUVEC,18%
same,% plaque reduction,HCMV strain AD169,5.8%
